What was measured:
HDL cholesterol = assay: Cholesterol fed rat, in vivo assay of serum HDL cholesterol; design: species or system Male Sprague-Dawley rats; conditions: test substance mixed in diet for 8 days, serum HDL cholesterol by FPLC
Method: The compounds are tested in vivo in rats fed cholesterol-augmented rodent chow for 8 days according to the test protocol and blood from the rats analyzed for HDL cholesterol.
In Vivo Assa.: Male Sprague-Dawley rats weighing 200-225 g are housed two per cage and fed Purina Rodent Chow Special Mix 5001-S supplemented with 0.25% cholic acid and 1.0% cholesterol and water ad libitum for 8 days. Each test substance is administered to a group of six rats fed the same diet with the test diet mixed in as 0.005-0.1% of the total diet. Body weight and food consumption are recorded prior to diet administration and at termination. Typical doses of the test substances are 5-100 mg/kg/day.
At termination, blood is collected from anesthetized rats and the serum is separated by centrifugation. Total serum cholesterol is assayed using the Sigma Diagnostics enzymatic kit for the determination of cholesterol, Procedure No. 352, modified for use with ninety-six well microtiter plates. After reconstitution with water the reagent contains 300 U/I cholesterol oxidase, 100 U/I horse radish peroxidase, 0.3 mmoles/l of 4-aminoantipyrine and 30.0 mmoles/l of p-hydroxybenzenesulfonate in a pH 6.5 buffer. In the reaction cholesterol is ;oxidized to produce hydrogen peroxide which is used to form a quinoneimine dye. The concentration of dye formed is measured spectrophotometrically by absorbance at 490 nm after incubation at 25° C. for 30 minutes. The concentration of cholesterol was determined for each serum sample relative to a commercial standard from Sigma.
HDL cholesterol concentrations in serum are determined by separation of lipoprotein classes by fast protein liquid chromatography (FPLC) by a modification of the method of Kieft et al., J. Lipid Res., 32 (1991) 859-866. 25 μl of serum is injected onto Superose 12 and Superose 6 (Pharmacia), in series, with a column buffer of 0.05 M Tris (2-amino-2-hydroxymethyl-1,3-propanediol) and 0.15 M sodium chloride at a flow rate of 0.5 ml/min. The eluted sample is mixed on line with Boehringer-Mannheim cholesterol reagent pumped at 0.2 ml/min. The combined eluents are mixed and incubated on line through a knitted coil (Applied Biosciences) maintained at a temperature of 45° C. The eluent is monitored by measuring absorbance at 490 nm and gives a continuous absorbance signal proportional to the cholesterol concentration. The relative concentration of each lipoprotein class is calculated as the per cent of total absorbance. HDL cholesterol concentration, in serum, is calculated as the per cent of total cholesterol as determined by FPLC multiplied by the total serum cholesterol concentration.

Compound | melting point | % Increase in HDL (Dose) (HDL cholesterol; 50 mg/kg) | % Increase in HDL (Dose) (HDL cholesterol; 100 mg/kg) | % Increase in HDL (Dose) (HDL cholesterol; 82 mg/kg)
CC(C)CCCC(C)NC(=O)CCC(=NNC(N)=S)c1ccccc1 (stereo not shown) [Example 9, 4-[(Aminothioxomethyl)-hydrazono]-N-(1,5-dimethylhexyl)-4-phenyl-butanamide] | 58 to 65 °C | 40.4% |  | 
CCCCNC(=O)CCC(=NNC(N)=S)c1ccccc1 [Example 1, 2-(4-Butylamino-4-oxo-1-phenyl-butylidene)-hydrazinothiocarboxamide] | 64 to 68 °C |  | 56% | 
NC(=S)NN=C(CCC(=O)N1CCCCC1)c1ccccc1 [Example 8, 1-[4-[(Aminothioxomethyl)hydrazono]-1-oxo-4-phenylbutyl]piperidine] | 181 to 183 °C | 52.8% |  | 
CNC(=O)CCC(=NNC(N)=S)c1ccccc1 [Example 5, 4-[(Aminothioxomrethyl)-hydrazono]-N-methyl-4-phenylbutanamide] |  |  | 43.3% | 
NC(=S)NN=C(CCC(=O)NC1CCCCC1)c1ccccc1 [Example 6, 4-[(Aminothioxomethyl)-hydrazono]-N-cyclohexyl-4-phenylbutanamide] | 89 to 92 °C |  |  | 28.1%
NC(=S)NN=C(CCC(=O)NCc1ccccc1)c1ccccc1 [Example 4, 4-[(Aminothioxomtethyl)-hydrazono]-N-benzyl-4-phenylbutanamide] |  | 49.5% |  | 

Further lines, with some results ahead:

melting point | Compound | % Increase in HDL (Dose) (HDL cholesterol; 50 mg/kg) | % Increase in HDL (Dose) (HDL cholesterol; 100 mg/kg) | % Increase in HDL (Dose) (HDL cholesterol; 82 mg/kg)
66 to 71 °C | CC(C)NC(=O)CCC(=NNC(N)=S)c1ccccc1 [Example 2, 4-[(Aminothioxomethyl)hydrazono]-N-(1-methylethyl)-4-phenyl-butanamide] |  | 61.7% | 
186 to 188 °C | NC(=O)CCC(=NNC(N)=S)c1ccccc1 [Example 3, 4-[(Aminothioxomethyl)-hydrazono]-4-phenylbutanamide] | 36.4% |  | 
173 to 175 °C | CN(C)C(=O)CCC(=NNC(N)=S)c1ccccc1 [Example 7, 4-[(Aminothioxomethyl)hydrazono]-N,N-dimethyl-4-phenylbutanamide] | 56.2% |  | 

Source: patent US6566375B1, “Elevation of HDL cholesterol by 4-[(aminothioxomethyl)-hydrazono]-N-(substituted)-4-arylbutanamides” (Wyeth, priority 1997, dated 2003)
